Experimental findings from publication PMC9433906, “Evaluation of the biotechnological potential of peptide Cupiennin 1a and analogs” (Frontiers in Microbiology, 2022) are described below.

In brackets after ≈: the same amount, converted by molar mass. Where a SMILES comes first, the peptide text is derived from it.

Assay type in all cases: cell-based
Data set [1] relates to Spodoptera frugiperda (SF21) cells. Kind of data set: In vitro test against insect cells (MTT). Conditions: 24 h. The method, then: To evaluate the ability of the peptides to cause lysis and morphological changes in insect cells ([Dutra, 2019]; Patent: BR 102022 006138 6) as a first screening of the insecticidal activity of the peptides, in this work, the Spodoptera IPLB-SF-21AE _LVI-Cenargen cell line ([Vaughn et al., 1977]) was used and different concentrations of the peptides were added to the culture medium.
Cells were maintained at 27°C in TNMFH medium (Grace’s insect medium supplemented with lactalbumin hydrolyzate and yeastolate), supplemented with 10% (v/v) fetal bovine serum (Sigma-Aldrich; [Castro et al., 2006]).
Cell cultivation was carried out in 10 ml culture bottles, model K11-1050 25cm^2, with 5 ml of culture medium per bottle. For the assays, the SF21 cells were grown in TNMFH medium, added 10% (v/v) of bovine fetal serum, and distributed in plates of 96 wells at the concentration of 2×10^4 cells per well, after counting was performed in the Neubauer chamber. Cell suspension was distributed in a volume of 100 μl per well. Peptides were diluted in TNMFH medium and 100 μl of medium with peptide was added, obtaining concentrations of 10, 5, and 1 μM, reaching the volume of 200 μl at the final concentrations of reaction per well. Cells were placed in incubation at 27°C, for 24 h.
After 24 h, the cells were analyzed for their modifications, morphological alterations, turbidity of the medium, formation of clumps, and/or lysis in the presence of peptides, by observation under optical microscopy (Nikon Eclipse TS100) with 20× and 40× magnification. Characteristics that could represent cell death or cell dysfunction caused by the peptides were observed compared to control cells. Cells were evaluated by cell viability using the MTT test 3-[4,5-dimethylthiazole-2-yl]-2,5-diphenyltetrazolium bromide 0.5 mg.ml^−1 (Sigma-Aldrich). To perform the test, the cell culture medium was discarded, and we added 100 μl of new medium. Ten μl of MTT was added to each well and incubated for 4 h, with the plates protected from light. After 4 h, we added 100 μl of DMSO to each well to dissolve the formazan crystals, and the reading in the microplate reader ([Riss et al., 2016]) was then performed. The results were analyzed using GraphPad Prism 8 software, where a One-Way ANOVA statistical test was followed by Bonferroni’s multiple comparisons test.

In data set [2] the test system is Klebsiella pneumoniae carbapenemase (KPC 1410503). The note with it: K. pneumoniae carbapenemase—KPC clinical isolate 1410503; 5×10^5 CFU.ml^−1, Mueller-Hinton Broth, 37°C, 24 h, OD 595 nm, biological triplicates; NE = MIC value not found. The method, then:
Susceptibility tests were performed using clinical isolates of Klebsiella pneumoniae carbapenemase (KPC 1410503) and methicillin-resistant S. aureus (MRSA 3730592). Tests were also performed with ATCC (American Type Culture Collection) isolates of K. pneumoniae (ATCC 13883) and S. aureus (ATCC 25923).
Two multidrug-resistant clinical isolates and two ATCC isolates were chosen to perform microbial susceptibility testing as models for studies with bacteria susceptible to antimicrobials found in the Gram-Positive and Gram-Negative groups of bacteria.
The broth microdilution method was performed according to the Clinical and Laboratory Standards Institute (CLSI) M07-A10 protocol to determine the Minimum Inhibitory Concentration (MIC; [Clinical Laboratory Standards Institute, 2015]). The assay was performed on 96-well microplates (TPP, United States), containing 5×10^5 CFU.ml^−1 of each tested bacterium per well and different peptide micromolar concentrations (Table 1) in a final volume of 100 μl of Mueller-Hinton Broth (MH). Negative control was represented by bacteria incubated in MH medium, while positive control was represented by culture incubated in MH medium with Amikacin. Plates were kept under agitation at 37°C in a BioTek spectrophotometer (PowerWaveTM HT Microplate Reader) with optical density (OD) readings at 595 nm every 30 min for 24 h. Inhibition results were analyzed using GraphPad Prism 8 software by comparing the OD from negative control wells (100%) to those containing peptides. All tests were performed in biological triplicates.

Data set [3] concerns Human fibroblast (Hfib) cells. The data set can be described thus: MTT cytotoxicity test against human fibroblasts (Hfib). Conditions: 24 h; for cytotoxicity against Hfib cells at the other concentrations (in words): concentrations other than the highest. On the procedure:
Human fibroblast (Hfib) cell cultures were cultivated in Dulbecco’s Modified Eagle Medium (DMEM; Sigma-Aldrich, United States) supplemented with 10% fetal bovine serum (Sigma-Aldrich). Hfib were cultured in a humidified incubator containing 5% CO2 at 37°C and 95% humidity.
Hfib cell line was seeded onto 96-well plates (1 × 10^3 cells/well, 100 μl) before treatment and allowed to adhere and grow over the 24 h period. Each peptide was subsequently added at different micromolar concentrations. The results were evaluated using GraphPad Prism 8 software, where a One-Way ANOVA statistical test followed by Bonferroni’s multiple comparisons test was performed.
Cell viability analyses were performed in technical and biological replicates, and readings were obtained after 24 h of contact with peptides. At the end of the incubation period, MTT (Sigma-Aldrich, United States) was used to assess the ability of living cells to reduce salt 3-[4,5-dimethylthiazole-2-yl]-2,5-diphenyltetrazolium bromide for formazan production. Plates were read at 570 ηm ([Mosmann, 1983]) and results were expressed in the percentage of living cells. The results were analyzed using GraphPad Prism 8 software where a One-Way ANOVA statistical test was followed by Bonferroni’s multiple comparisons test.

[4] abbreviates: lowest concentration tested (1 μM).

With `CC(C)C[C@H](NC(=O)[C@H](CCCNC(=N)N)NC(=O)[C@H](CCCCN)NC(=O)[C@H](Cc1ccccc1)NC(=O)[C@H](CC(C)C)NC(=O)[C@H](CCCCN)NC(=O)CNC(=O)[C@H](Cc1ccccc1)NC(=O)CN)C(=O)N[C@@H](C)C(=O)N[C@@H](CCCCN)C(=O)N[C@@H](C)C(=O)N[C@H](C(=O)N[C@@H](C)C(=O)N[C@@H](CCCCN)C(=O)N[C@@H](C)C(=O)N[C@H](C(=O)N[C@@H](C)C(N)=O)C(C)C)C(C)C` [Peptide R10b] (H-GFGKLFKRLAKAVAKAVA-NH2), the “cell viability (SF21)” value in data set [1] (setting [4]) is recorded as “below 50%”. Besides, the “Minimum inhibitory concentration (MIC)” value in data set [2] turned out to be 17.07 µM (≈ 32 µg/mL). Also, the “Hfib cells killed at the highest concentration” value in data set [3] (68.3 (highest concentration)) was determined as 100%. For the same compound, the “cytotoxicity against Hfib cells at the other concentrations (in words)” value in data set [3] is reported as “not harmful”.
With `CC(C)C[C@H](NC(=O)[C@H](C)NC(=O)CNC(=O)[C@H](Cc1ccccc1)NC(=O)CN)C(=O)N[C@@H](Cc1ccccc1)C(=O)N[C@@H](CCCCN)C(=O)N[C@@H](Cc1ccccc1)C(=O)N[C@@H](CC(C)C)C(=O)N[C@@H](C)C(=O)N[C@@H](CCCCN)C(=O)N[C@@H](C)C(=O)N[C@H](C(=O)N[C@@H](C)C(=O)N[C@@H](CCCCN)C(=O)N[C@@H](C)C(=O)N[C@H](C(=O)N[C@@H](C)C(N)=O)C(C)C)C(C)C` [Peptide R6b] (H-GFGALFKFLAKAVAKAVA-NH2), the “cell viability (SF21)” value in data set [1] (setting [4]) is recorded as “below 50%”. The “activity on Hfib cells, reducing the cell viability (in words)” value in data set [3] (35.4 μM) was “slight activity”. In addition, the Hfib cells eradicated in data set [3] (70.8 μM) came to 100%.
As for `CC(C)C[C@H](NC(=O)[C@H](C)NC(=O)CNC(=O)[C@H](Cc1ccccc1)NC(=O)CN)C(=O)N[C@@H](Cc1ccccc1)C(=O)N[C@@H](CCCCN)C(=O)N[C@@H](CCCNC(=N)N)C(=O)N[C@@H](CC(C)C)C(=O)N[C@@H](C)C(=O)N[C@@H](CCCCN)C(=O)N[C@@H](C)C(=O)N[C@H](C(=O)N[C@@H](C)C(=O)N[C@@H](CCCCN)C(=O)N[C@@H](C)C(=O)N[C@H](C(=O)N[C@@H](C)C(N)=O)C(C)C)C(C)C` [Peptide R8b] (H-GFGALFKRLAKAVAKAVA-NH2), the “cell viability (SF21)” value in data set [1] (setting [4]) is reported as “below 50%”. For the same compound, the “Minimum inhibitory concentration (MIC)” value in data set [2] is 35.21 µM (≈ 64 µg/mL). In data set [3] (70.43 (highest concentration)), the “Hfib cells killed at the highest concentration” value is on record as 100%. The “cytotoxicity against Hfib cells at the other concentrations (in words)” value in data set [3] is listed as “not harmful”.
Turning to `CC(C)C[C@H](NC(=O)[C@H](C)NC(=O)CNC(=O)[C@H](Cc1ccccc1)NC(=O)CN)C(=O)N[C@@H](Cc1ccccc1)C(=O)N[C@@H](CCCCN)C(=O)N[C@@H](CCCNC(=N)N)C(=O)N[C@@H](CC(C)C)C(=O)N[C@@H](C)C(=O)N[C@@H](CCCCN)C(=O)N[C@@H](CCCCN)C(=O)N[C@H](C(=O)N[C@@H](C)C(=O)N[C@@H](CCCCN)C(=O)N[C@H](C(=O)N[C@H](C(=O)N[C@@H](C)C(N)=O)C(C)C)[C@@H](C)O)C(C)C` [Peptide R3b] (H-GFGALFKRLAKKVAKTVA-NH2), in data set [1] (10 μM), the “viable cells (SF21)” value was 14%. In data set [1] (5 and 1 μM), the “cell viability (SF21)” value was “greater than 50%”. Moreover, in data set [3] (all concentrations tested), the “cytotoxic effect on Hfib cells (in words)” value is on record as “did not show any cytotoxic effect”.
